Holding throughout (type): functional
In experiment [1] the test system is Escherichia coli. Nature of the experiment: In vitro antibacterial activity against Escherichia coli 1850.
Experiment [2] has as its system Escherichia coli. Nature of the experiment: In vitro antibacterial activity against Escherichia coli 1919.
A further experiment has as its system Enterococcus faecalis. The experiment in a line: In vitro antibacterial activity against Enterococcus faecalis 850.
For another experiment, the system named is Clostridium perfringens. Nature of the experiment: In vitro antibacterial activity against Clostridium perfringens 615E.
For experiment [3], the system named is Staphylococcus aureus. The experiment in a line: In vitro antibacterial activity against Staphylococcus aureus 663E.
Experiment [4] concerns Staphylococcus aureus. The experiment in a line: In vitro antibacterial activity against Staphylococcus aureus 853.

Consider `CO[C@@H]1CCC[C@H]2C1=C(C(=O)[O-])N1C(=O)[C@H]([C@@H](C)O)C21.[K+]` (some centres not stated), for which the minimal inhibitory concentration (MIC) is 1 µg/mL against Escherichia coli [1]; 4 µg/mL in the experiment on Escherichia coli [2]; 8 µg/mL in the experiment with Enterococcus faecalis; 120 µg/mL in the experiment with Clostridium perfringens; 0.5 µg/mL with Staphylococcus aureus [3]; 0.5 µg/mL against Staphylococcus aureus [4].

With `CO[C@@H]1CCC[C@@H]2C1=C(C(=O)[O-])N1C(=O)[C@H]([C@@H](C)O)C21.[K+]` (some centres not stated), the minimal inhibitory concentration (MIC) with Escherichia coli [1] was 16 µg/mL; against Escherichia coli [2] it was 16 µg/mL; with Enterococcus faecalis it was 32 µg/mL; against Clostridium perfringens, 1000 µg/mL; against Staphylococcus aureus [3], 2 µg/mL; against Staphylococcus aureus [4], 2 µg/mL.

For `C[C@@H](O)[C@H]1C(=O)N2C(C(=O)O)=C(SCCNC=N)C[C@H]12.O` [IMIPENEM], the MIC in the experiment on Escherichia coli [1] was 0.5 µg/mL; with Escherichia coli [2], 0.5 µg/mL; with Enterococcus faecalis it was 2 µg/mL; against Clostridium perfringens it was 30 µg/mL; in the experiment with Staphylococcus aureus [3], 0.12 µg/mL; against Staphylococcus aureus [4], 0.1 µg/mL.

`CO[C@H]1CCC[C@@H]2C1=C(C(=O)[O-])N1C(=O)[C@H]([C@@H](C)O)C21.[K+]` (some centres not stated): the MIC in the experiment with Escherichia coli [1] was determined as 32 µg/mL; with Escherichia coli [2], 16 µg/mL; in the experiment with Enterococcus faecalis, 32 µg/mL; against Clostridium perfringens, 4000 µg/mL; against Staphylococcus aureus [3], 2 µg/mL; against Staphylococcus aureus [4], 1 µg/mL.

With `CO[C@H]1CCC[C@H]2C1=C(C(=O)[O-])N1C(=O)[C@H]([C@@H](C)O)C21.[K+]` (some centres not stated), the MIC against Escherichia coli [1] is 0.5 µg/mL; against Escherichia coli [2] it was 0.5 µg/mL; against Enterococcus faecalis it was 1 µg/mL; in the experiment on Clostridium perfringens it was 30 µg/mL; with Staphylococcus aureus [3], 0.25 µg/mL; against Staphylococcus aureus [4] it was 0.25 µg/mL.

Take `CO[C@]12CCCCC1=C(C(=O)[O-])N1C(=O)[C@H]([C@@H](C)O)[C@H]12.[K+]`: the MIC with Escherichia coli [1] amounted to 32 µg/mL; with Escherichia coli [2] it was 8 µg/mL; in the experiment with Enterococcus faecalis, 32 µg/mL; in the experiment with Clostridium perfringens, 2000 µg/mL; in the experiment with Staphylococcus aureus [3], 4 µg/mL; against Staphylococcus aureus [4], 8 µg/mL.

On to `CO[C@@]12CCCCC1=C(C(=O)[O-])N1C(=O)[C@H]([C@@H](C)O)[C@H]12.[K+]`, for which the MIC was found to be 8 µg/mL in the experiment on Escherichia coli [1]; 4 µg/mL in the experiment with Escherichia coli [2]; 16 µg/mL in the experiment on Enterococcus faecalis; 2000 µg/mL with Clostridium perfringens; 4 µg/mL with Staphylococcus aureus [3]; 4 µg/mL in the experiment on Staphylococcus aureus [4].

These data come from ChEMBL document CHEMBL1129762, “Synthesis and antibacterial activity of 4- and 8-methoxy trinems” (1996).
